Reference: patent US8455658B2, “Thiazole and thiadiazole compounds for inflammation and immune-related uses” (Synta Pharmaceuticals Corp., priority 2006, dated 2013)
pIC50: −log10 of the molar value.

tested on: IL-2 production; assay: Inhibition of IL-2 production in PHA-activated Jurkat cells (ELISA); type: cell-based; conditions: Homo sapiens, Jurkat, 20 h, PHA 2.5 μg/mL, IL-2 ELISA
Procedure: Jurkat cells were placed in a 96 well plate (0.5 million cells per well in 1% FBS medium) then a test compound of this invention was added at different concentrations. After 10 minutes, the cells were activated with PHA (final concentration 2.5 μg/mL) and incubated for 20 hours at 37° C. under CO2. The final volume was 200 μL. Following incubation, the cells were centrifuged and the supernatants collected and stored at −70° C. prior to assaying for IL-2 production. A commercial ELISA kit (IL-2 Eli-pair, Diaclone Research, Besancon, France) was used to detect production of IL-2, from which dose response curves were obtained.

Structure (SMILES) | pIC50
Cc1nc(NC(=O)c2c(F)cccc2F)sc1-c1ccsc1 [Compound 62, 2,6-Difluoro-N-(4-methyl-5-(thiophen-3-yl)thiazol-2-yl)benzamide] | < 6.00
Cn1cncc1-c1nc(NC(=O)c2c(F)cccc2F)sc1-c1cccc(C(F)(F)F)c1 [Compound 80, 2,6-Difluoro-N-(4-(1-methyl-1H-imidazol-5-yl)-5-(3-(trifluoromethyl)phenyl)thiazol-2-yl)benzamide] | < 6.00
C=CCOc1ccc(C(F)(F)F)cc1-c1sc(NC(=O)c2c(F)cccc2F)nc1C(=O)OC [Compound 63, Methyl 5-(2-(allyloxy)-5-(trifluoromethyl)phenyl)-2-(2,6-difluorobenzamido)thiazole-4-carboxylate] | < 6.00
O=Cc1nc(NC(=O)c2c(F)cccc2F)sc1-c1cccc(C(F)(F)F)c1 [Compound 67, 2,6-Difluoro-N-(4-formyl-5-(3-(trifluoromethyl)phenyl)thiazol-2-yl)benzamide] | < 6.00
O=C(Nc1nc(/C=N\O)c(-c2cccc(C(F)(F)F)c2)s1)c1c(F)cccc1F [Compound 72, (Z)-2,6-difluoro-N-(4-((hydroxyimino)methyl)-5-(3-(trifluoromethyl)phenyl)thiazol-2-yl)benzamide] | < 6.00
CC(C)(O)c1nc(NC(=O)c2c(F)cccc2F)sc1-c1cccc(C(F)(F)F)c1 [Compound 68, 2,6-Difluoro-N-(4-(2-hydroxypropan-2-yl)-5-(3-(trifluoromethyl)phenyl)thiazol-2-yl)benzamide] | < 6.00
CCC(=O)c1nc(NC(=O)c2c(F)cccc2F)sc1-c1cccc(C(F)(F)F)c1 [Compound 94, 2,6-difluoro-N-(4-propionyl-5-(3-(trifluoromethyl)phenyl)thiazol-2-yl)benzamide] | 7.00 to 7.30
Cc1nc(NC(=O)c2c(F)cccc2F)sc1-c1ccc(Br)s1 [Compound 59, N-(5-(5-Bromothiophen-2-yl)-4-methylthiazol-2-yl)-2,6-difluorobenzamide] | 6.70 to 7.00
CC(C)c1nc(NC(=O)c2c(F)cccc2F)sc1-c1cccc(C(F)(F)F)c1 [Compound 69, 2,6-Difluoro-N-(4-isopropyl-5-(3-(trifluoromethyl)phenyl)thiazol-2-yl)benzamide] | 6.30 to 6.70
Cc1cnccc1C(=O)Nc1nc(C2CC2)c(-c2cccc(C(F)(F)F)c2)s1 [Compound 53, N-(4-cyclopropyl-5-(3-(trifluoromethyl)phenyl)thiazol-2-yl)-3-methylisonicotinamide] | 7.00 to 7.30

The remaining lines, values ahead:

pIC50 | Structure (SMILES)
< 6.00 | O=C(Nc1c(F)cccc1F)c1cnc(-c2cccc(-c3ncco3)c2)s1 [Compound 124, N-(2,6-difluorophenyl)-2-(3-(oxazol-2-yl)phenyl)thiazole-5-carboxamide]
6.70 to 7.00 | O=C(Nc1c(F)cccc1F)c1ncc(-c2cccc(C(F)(F)F)c2)s1 [Compound 130, N-(2,6-difluorophenyl)-5-(3-(trifluoromethyl)phenyl)thiazole-2-carboxamide]
< 6.00 | COC(=O)c1cccc(-c2sc(NC(=O)c3c(F)cccc3F)nc2C(=O)OC)c1 [Compound 114, Methyl 2-(2,6-difluorobenzamido)-5-(3-(methoxycarbonyl)phenyl)thiazole-4-carboxylate]
< 6.00 | Cc1cnccc1NC(=O)c1ncc(-c2cc(-c3nccs3)ccc2C)s1 [Compound 133, 5-(2-methyl-5-(thiazol-2-yl)phenyl)-N-(3-methylpyridin-4-yl)thiazole-2-carboxamide]
6.70 to 7.00 | Cc1ccc(-c2ncco2)cc1-c1ncc(C(=O)Nc2c(F)cccc2F)s1 [Compound 121, N-(2,6-difluorophenyl)-2-(2-methyl-5-(oxazol-2-yl)phenyl)thiazole-5-carboxamide]
7.00 to 7.30 | Cc1nc(C(=O)Nc2c(F)cccc2F)sc1-c1cccc(-c2ncco2)c1 [Compound 116, N-(2,6-difluorophenyl)-4-methyl-5-(3-(oxazol-2-yl)phenyl)thiazole-2-carboxamide]
